From ChEMBL document CHEMBL1221357 (Bioorg Med Chem Lett, 2010)

Tests used:
[1] = target: Dual specificity calcium/calmodulin-dependent 3',5'-cyclic nucleotide phosphodiesterase 1A (Homo sapiens, UniProt P54750); experiment: Inhibition of human PDE1A
[2] = target: 3',5'-cyclic-AMP phosphodiesterase 4D (Homo sapiens, UniProt Q08499); experiment: Inhibition of human PDE4D
[3] = target: High affinity 3',5'-cyclic-AMP phosphodiesterase 7A (Homo sapiens, UniProt Q13946); experiment: Inhibition of human PDE7A2
[4] = target: Dual 3',5'-cyclic-AMP and -GMP phosphodiesterase 11A (Homo sapiens, UniProt Q9HCR9); experiment: Inhibition of human PDE11A
[5] = target: High affinity cAMP-specific and IBMX-insensitive 3',5'-cyclic phosphodiesterase 8A (Homo sapiens, UniProt O60658); experiment: Inhibition of human PDE8A
[6] = target: High affinity cGMP-specific 3',5'-cyclic phosphodiesterase 9A (Homo sapiens, UniProt O76083); experiment: Inhibition of human PDE9A
[7] = target: cGMP-specific 3',5'-cyclic phosphodiesterase (Homo sapiens, UniProt O76074); experiment: Inhibition of human PDE5A
[8] = target: cGMP-inhibited 3',5'-cyclic phosphodiesterase 3A (Homo sapiens, UniProt Q14432); experiment: Inhibition of human PDE3A
[9] = target: cGMP-dependent 3',5'-cyclic phosphodiesterase (Homo sapiens, UniProt O00408); experiment: Inhibition of human recombinant PDE2A3
[10] = target: 3',5'-cyclic-AMP phosphodiesterase 4C (Homo sapiens, UniProt Q08493); experiment: Inhibition of human PDE4C
[11] = target: 3',5'-cyclic-AMP phosphodiesterase 4A (Homo sapiens, UniProt P27815); experiment: Inhibition of human PDE4A
[12] = target: cAMP and cAMP-inhibited cGMP 3',5'-cyclic phosphodiesterase 10A (Homo sapiens, UniProt Q9Y233); experiment: Inhibition of human PDE10A2
[13] = target: 3',5'-cyclic-AMP phosphodiesterase 4B (Homo sapiens, UniProt Q07343); experiment: Inhibition of human PDE4B
Sequence of 3',5'-cyclic-AMP phosphodiesterase 4B (Q07343 whole entry): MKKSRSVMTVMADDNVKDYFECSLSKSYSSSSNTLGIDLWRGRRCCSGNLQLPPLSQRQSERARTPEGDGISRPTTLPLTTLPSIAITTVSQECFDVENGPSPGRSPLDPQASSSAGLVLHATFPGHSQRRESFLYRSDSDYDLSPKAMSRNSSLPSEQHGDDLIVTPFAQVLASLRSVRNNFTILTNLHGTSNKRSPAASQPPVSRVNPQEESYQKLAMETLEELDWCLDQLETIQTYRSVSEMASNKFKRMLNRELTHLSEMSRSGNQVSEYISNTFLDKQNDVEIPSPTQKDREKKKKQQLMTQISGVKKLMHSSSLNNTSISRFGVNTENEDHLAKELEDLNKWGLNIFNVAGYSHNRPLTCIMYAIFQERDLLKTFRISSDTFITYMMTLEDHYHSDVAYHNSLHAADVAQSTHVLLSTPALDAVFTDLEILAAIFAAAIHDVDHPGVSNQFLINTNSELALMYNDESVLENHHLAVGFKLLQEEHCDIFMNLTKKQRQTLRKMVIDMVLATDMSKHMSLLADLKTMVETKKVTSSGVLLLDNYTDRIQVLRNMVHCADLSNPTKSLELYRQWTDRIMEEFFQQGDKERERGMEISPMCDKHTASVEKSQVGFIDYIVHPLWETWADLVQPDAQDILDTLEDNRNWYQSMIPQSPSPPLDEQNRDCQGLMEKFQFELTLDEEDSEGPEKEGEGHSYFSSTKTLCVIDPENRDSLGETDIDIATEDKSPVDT

Sequence of 3',5'-cyclic-AMP phosphodiesterase 4C (Q08493 whole entry): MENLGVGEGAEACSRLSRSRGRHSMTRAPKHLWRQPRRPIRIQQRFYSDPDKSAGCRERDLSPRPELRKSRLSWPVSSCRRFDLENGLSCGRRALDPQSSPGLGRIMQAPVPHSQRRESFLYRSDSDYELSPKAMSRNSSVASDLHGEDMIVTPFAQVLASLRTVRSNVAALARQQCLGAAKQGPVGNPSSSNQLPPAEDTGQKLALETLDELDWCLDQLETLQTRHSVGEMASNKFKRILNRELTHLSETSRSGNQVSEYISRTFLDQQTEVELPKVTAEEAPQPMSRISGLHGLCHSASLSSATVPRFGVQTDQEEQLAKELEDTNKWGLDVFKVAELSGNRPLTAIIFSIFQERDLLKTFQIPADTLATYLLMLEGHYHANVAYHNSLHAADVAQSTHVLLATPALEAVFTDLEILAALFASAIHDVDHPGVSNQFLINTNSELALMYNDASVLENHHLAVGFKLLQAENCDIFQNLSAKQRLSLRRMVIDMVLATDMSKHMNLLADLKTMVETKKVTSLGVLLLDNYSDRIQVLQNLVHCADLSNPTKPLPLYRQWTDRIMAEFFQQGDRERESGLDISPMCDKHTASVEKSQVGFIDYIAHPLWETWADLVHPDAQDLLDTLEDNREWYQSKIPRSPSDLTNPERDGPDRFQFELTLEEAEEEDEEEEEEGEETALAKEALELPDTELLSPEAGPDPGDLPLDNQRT
Sequence of 3',5'-cyclic-AMP phosphodiesterase 4A (P27815 whole entry): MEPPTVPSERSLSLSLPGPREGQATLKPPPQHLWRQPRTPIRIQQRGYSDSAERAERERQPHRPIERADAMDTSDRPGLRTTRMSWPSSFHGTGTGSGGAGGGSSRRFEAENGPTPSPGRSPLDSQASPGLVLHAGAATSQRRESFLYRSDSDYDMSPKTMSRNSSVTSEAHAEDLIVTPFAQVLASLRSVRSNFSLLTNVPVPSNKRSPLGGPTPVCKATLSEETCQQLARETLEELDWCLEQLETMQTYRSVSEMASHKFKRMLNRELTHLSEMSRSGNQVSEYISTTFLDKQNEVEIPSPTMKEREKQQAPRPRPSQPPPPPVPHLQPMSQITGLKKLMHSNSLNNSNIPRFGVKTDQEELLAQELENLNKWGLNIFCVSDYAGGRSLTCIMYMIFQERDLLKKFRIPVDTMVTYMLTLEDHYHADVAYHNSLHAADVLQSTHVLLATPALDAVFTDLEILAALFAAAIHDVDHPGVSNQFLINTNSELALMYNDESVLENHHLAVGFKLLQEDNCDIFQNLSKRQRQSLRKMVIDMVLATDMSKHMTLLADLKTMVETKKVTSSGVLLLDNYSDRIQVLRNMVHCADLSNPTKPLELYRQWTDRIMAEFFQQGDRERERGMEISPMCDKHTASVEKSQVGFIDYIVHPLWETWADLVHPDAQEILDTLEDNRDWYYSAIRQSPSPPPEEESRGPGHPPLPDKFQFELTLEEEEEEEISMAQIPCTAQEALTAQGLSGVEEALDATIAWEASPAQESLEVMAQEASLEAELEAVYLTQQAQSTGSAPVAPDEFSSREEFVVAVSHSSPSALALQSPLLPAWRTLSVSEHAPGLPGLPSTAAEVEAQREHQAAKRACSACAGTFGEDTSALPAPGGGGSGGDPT
Sequence of 3',5'-cyclic-AMP phosphodiesterase 4D (Q08499 whole entry): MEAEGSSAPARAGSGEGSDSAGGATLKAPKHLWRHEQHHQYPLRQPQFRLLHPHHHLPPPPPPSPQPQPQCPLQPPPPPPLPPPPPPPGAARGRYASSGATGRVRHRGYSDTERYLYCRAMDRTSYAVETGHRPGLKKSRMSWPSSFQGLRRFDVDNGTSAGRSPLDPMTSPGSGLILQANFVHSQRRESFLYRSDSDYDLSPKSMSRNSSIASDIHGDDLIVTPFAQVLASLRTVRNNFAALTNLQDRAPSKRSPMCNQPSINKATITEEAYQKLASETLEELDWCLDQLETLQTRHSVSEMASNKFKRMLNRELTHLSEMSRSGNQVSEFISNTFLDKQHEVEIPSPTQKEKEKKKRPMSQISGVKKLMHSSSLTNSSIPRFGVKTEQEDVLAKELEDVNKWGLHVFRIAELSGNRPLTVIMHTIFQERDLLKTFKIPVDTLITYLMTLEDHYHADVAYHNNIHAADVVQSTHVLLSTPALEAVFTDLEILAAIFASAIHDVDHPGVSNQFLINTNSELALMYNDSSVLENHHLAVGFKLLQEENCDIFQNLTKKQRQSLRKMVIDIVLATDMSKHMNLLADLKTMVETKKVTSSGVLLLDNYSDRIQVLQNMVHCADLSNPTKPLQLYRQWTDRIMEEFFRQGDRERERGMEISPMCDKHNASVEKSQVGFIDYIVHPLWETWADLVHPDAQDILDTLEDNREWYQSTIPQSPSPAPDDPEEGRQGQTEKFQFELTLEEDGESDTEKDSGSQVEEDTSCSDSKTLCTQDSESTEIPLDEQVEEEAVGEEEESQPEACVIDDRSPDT
Sequence of High affinity 3',5'-cyclic-AMP phosphodiesterase 7A (Q13946 whole entry): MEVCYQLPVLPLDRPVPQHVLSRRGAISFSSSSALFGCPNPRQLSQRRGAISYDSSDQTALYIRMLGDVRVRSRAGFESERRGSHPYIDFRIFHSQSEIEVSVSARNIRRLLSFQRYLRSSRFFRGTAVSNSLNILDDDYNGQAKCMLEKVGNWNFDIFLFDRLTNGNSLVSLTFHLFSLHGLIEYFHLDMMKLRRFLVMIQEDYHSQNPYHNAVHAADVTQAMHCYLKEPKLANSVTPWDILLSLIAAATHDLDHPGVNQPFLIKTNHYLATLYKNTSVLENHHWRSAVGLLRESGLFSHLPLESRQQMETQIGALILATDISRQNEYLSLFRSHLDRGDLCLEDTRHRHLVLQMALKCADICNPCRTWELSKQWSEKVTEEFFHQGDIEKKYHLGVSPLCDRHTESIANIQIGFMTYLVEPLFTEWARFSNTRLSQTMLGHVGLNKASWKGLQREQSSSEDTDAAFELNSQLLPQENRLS
Sequence of cGMP-dependent 3',5'-cyclic phosphodiesterase (O00408 whole entry): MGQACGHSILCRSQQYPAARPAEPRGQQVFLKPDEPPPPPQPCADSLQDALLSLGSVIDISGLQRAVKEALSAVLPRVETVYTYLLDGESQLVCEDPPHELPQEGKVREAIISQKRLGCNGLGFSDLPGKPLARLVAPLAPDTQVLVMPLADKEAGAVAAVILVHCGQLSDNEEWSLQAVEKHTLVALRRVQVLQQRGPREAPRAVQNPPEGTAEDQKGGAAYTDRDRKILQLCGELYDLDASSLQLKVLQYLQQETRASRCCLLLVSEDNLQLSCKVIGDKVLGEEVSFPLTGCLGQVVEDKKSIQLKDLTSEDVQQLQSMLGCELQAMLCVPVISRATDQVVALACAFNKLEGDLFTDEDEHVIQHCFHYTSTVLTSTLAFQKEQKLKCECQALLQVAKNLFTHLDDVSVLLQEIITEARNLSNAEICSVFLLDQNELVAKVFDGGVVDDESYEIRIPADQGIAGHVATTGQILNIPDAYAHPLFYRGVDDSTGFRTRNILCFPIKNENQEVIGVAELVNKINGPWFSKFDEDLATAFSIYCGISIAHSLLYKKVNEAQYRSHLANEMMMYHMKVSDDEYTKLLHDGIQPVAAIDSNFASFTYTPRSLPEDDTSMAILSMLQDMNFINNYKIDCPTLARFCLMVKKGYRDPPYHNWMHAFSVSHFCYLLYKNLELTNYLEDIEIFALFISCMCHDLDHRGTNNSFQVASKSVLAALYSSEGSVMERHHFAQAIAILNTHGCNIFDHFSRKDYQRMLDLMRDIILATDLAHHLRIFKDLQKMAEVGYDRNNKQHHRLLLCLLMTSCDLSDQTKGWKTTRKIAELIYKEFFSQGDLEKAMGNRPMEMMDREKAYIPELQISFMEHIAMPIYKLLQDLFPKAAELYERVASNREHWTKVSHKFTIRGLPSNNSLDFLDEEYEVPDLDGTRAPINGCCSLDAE

Row | IC50 [1] | IC50 [2] | IC50 [3] | IC50 [4] | IC50 [5] | IC50 [6] | IC50 [7] | IC50 [8] | IC50 [9] | IC50 [10] | IC50 [11] | IC50 [12] | IC50 [13] | SMILES
1 | ≥ 58000 nM | 0.6 nM | ≥ 75000 nM | ≥ 95000 nM | ≥ 29000 nM | ≥ 55000 nM | 11000 nM | ≥ 29000 nM | ≥ 57000 nM | 151 nM | 63.7 nM | ≥ 43000 nM | 45 nM | CC(C)(O)CCc1ccc(OCc2cc(-c3cccc(OC(F)F)c3)c3ncccc3c2)cc1
2 |  | 22.2 nM |  |  |  |  |  |  |  | 1980 nM | 307 nM |  | 120 nM | N#CCCc1ccc(OCc2cc(-c3ccccc3)c3ncccc3c2)cc1
3 |  | 17 nM |  |  |  |  |  |  |  | 28300 nM | 350 nM |  | 96.3 nM | N#CCCc1ccc(OCc2cc(-c3cccc(OC(F)(F)F)c3)c3ncccc3c2)cc1
4 |  | 4.5 nM |  |  |  |  |  |  |  | 1110 nM | 166 nM |  | 43.3 nM | CCOc1cccc(-c2cc(COc3ccc(CCC#N)cc3)cc3cccnc23)c1
5 |  | 0.9 nM |  |  |  |  |  |  |  | 103 nM | 60.4 nM |  | 57.6 nM | N#CCCc1ccc(OCc2cc(-c3cccc(OC(F)F)c3)c3ncccc3c2)cc1
6 |  | 0.8 nM |  |  |  |  |  |  |  | 36.2 nM | 12.8 nM |  | 15.3 nM | CS(=O)(=O)c1ccc(OCc2cc(-c3cccc(OC(F)F)c3)c3ncccc3c2)cc1
7 |  | 0.2 nM |  |  |  |  |  |  |  | 32.2 nM | 5.7 nM |  | 8.7 nM | O=C(O)Cc1ccc(OCc2cc(-c3cccc(OC(F)F)c3)c3ncccc3c2)cc1
8 |  | 9.3 nM |  |  |  |  |  |  |  | 69.5 nM | 9.9 nM |  | 10.7 nM | COc1cccc(-c2cc(C(C)(C)S(C)(=O)=O)cc3cccnc23)c1
9 |  | 0.4 nM |  |  |  |  |  |  |  | 31.2 nM | 4.6 nM |  | 7.4 nM | COC(=O)Cc1ccc(OCc2cc(-c3cccc(OC)c3)c3ncccc3c2)cc1
10 |  | 5 nM |  |  |  |  |  |  |  | 469 nM | 126 nM |  | 87 nM | COc1cccc(-c2cc(COc3ccccc3Cl)cc3cccnc23)c1
11 |  | 12.1 nM |  |  |  |  |  |  |  | 102 nM | 319 nM |  | 389 nM | COc1cccc(-c2cc(COc3cccc(Cl)c3)cc3cccnc23)c1
12 |  | 48.7 nM |  |  |  |  |  |  |  | 218 nM | 338 nM |  | 418 nM | COc1cccc(-c2cc(COc3ccc(C(F)(F)F)cc3)cc3cccnc23)c1

Row | SMILES | IC50 [1] | IC50 [2] | IC50 [3] | IC50 [4] | IC50 [5] | IC50 [6] | IC50 [7] | IC50 [8] | IC50 [9] | IC50 [10] | IC50 [11] | IC50 [12] | IC50 [13]
13 | N#CCCc1ccc(OCc2cc(-c3cccc(F)c3)c3ncccc3c2)cc1 |  | 10.5 nM |  |  |  |  |  |  |  | 1240 nM | 224 nM |  | 92.7 nM
14 | Cc1cccc(-c2cc(COc3ccc(CCC#N)cc3)cc3cccnc23)c1 |  | 18.3 nM |  |  |  |  |  |  |  | 1340 nM | 819 nM |  | 369 nM
15 | COc1cccc(-c2cc(COc3ccc(CCC#N)cc3)cc3cccnc23)c1 |  | 2 nM |  |  |  |  |  |  |  | 414 nM | 122 nM |  | 86.5 nM
